Source: patent US20080300147A1, “Detection and Treatment of Fibrotic Disorders” (priority 2004, published 2008)

Columns and labels:
myometrium [1] = assay: Realtime PCR mRNA expression in myometrium, GnRHa therapy vs untreated; format: in vivo, human
From the text: Tissues. Portions of leiomyoma and matched myometrium were collected from premenopausal women (N=6) who were scheduled to undergo hysterectomy for indications related to symptomatic leiomyomas. Three of the patients received GnRHa therapy for three months prior to surgery. […] To maintain a standard, all leiomyomas selected for this study were between 2 to 3 cm in diameter. […] The tissues were collected at the University of Florida affiliated Shands Hospital with prior approval obtained from the Institutional Review Board.
Quantitative RealTime PCR. Realtime PCR was utilized for verification of 10 differentially expressed and regulated genes identified in leiomyoma and myometrium as well as LSMC and MSMC from untreated and GnRHa-treated cohorts. The selection of these genes was based not only on their expression values (up or downregulation), but classification and biological functions important to leiomyoma growth and regression, regulation by ovarian steroids, GnRHa and TGF-β. They are IL-11, CITED2, Nur77, EGR3, TGIF, TIEG, p27, p57, GAS-1 and GPRK5 representing cytokines, transcription factors, cell cycle regulators and signal transduction.
(§1) Portions of leiomyoma and matched myometrium were collected from premenopausal women (N=27) who were scheduled to undergo hysterectomy for symptomatic uterine leiomyomas at the University of Florida affiliated Shands Hospital. Of these patients seven received GnRHa therapy for a period of three months prior to surgery. […] To maintain a standard, leiomyomas used in this study were 2 to 3 cm in diameter. Prior approval was obtained from the University of Florida Institutional Review Board for the experimental protocol of this study.
as §1, with “patients,” for “patients”
Realtime PCR. Briefly, total RNA was isolated from leiomyoma and matched myometrium using Trizol Reagent (INVITROGEN, Carlsbad, Calif.) and complimentary DNA was generated from 2 μg of total RNA using Taqman reverse transcription reagent. The newly synthesized cDNA was used for PCR performed in 96-well optical reaction plates with cDNA equivalent to 100 ng RNA in a volume of 50 μl reaction containing 1× Taqman Universal Master Mix, optimized concentrations of FAM-labeled probe and specific forward and reverse primer for FMOD selected from Assay on Demand (APPLIED BIOSYSTEMS). Controls included RNA subjected to RT-PCR without reverse transcriptase and PCR with water replacing cDNA.

myometrium [2] = conditions: GnRHa treated group compared to secretory phase tissues
From the text: (§2) Western Blot Analysis and Immunohistochemical Localization. For immunoblotting, total protein was isolated from small portions of GnRHa-treated and untreated leiomyoma and myometrium as well as the GnRHa-treated and untreated cells as previously described (Ding, L et al. J Clin Endocrinol Metab, 2004, 89:5549-5557; Chegini, N et al. Mol Cell Endocrinol, 2003, 209:9-16). Following determination of the tissue homogenates and cell lysates protein content an equal amount of sample proteins were subjected to SDS-PAGE and transferred to polyvinyldiene difluoride (PVDF) membrane. The blots were incubated with anti-TIEG antibody, kindly provided by Dr. Thomas Spelsberg, Department of Biochemistry, Mayo Clinic, Rochester, Minn. (Johnsen, S A et al. Oncogene, 2002, 21:5783-90), TGIF, EGR3, p27, p57, Nur77 and Gas1 antibodies purchased from Santa Cruz Biochemical (Santa Cruz, Calif.), IL-11 antibodies purchased from R & D system (Minneapolis, Minn.) for 1 hr at room temperature. […]
(§3) Western Blot Analysis and Immunohistochemical Localization. […] The homogenates' protein contents were determined, and an equal amount was subjected to SDS-PAGE and transferred to polyvinyldiene difluoride membrane.

leiomyoma = conditions: GnRHa treated group compared to secretory phase tissues
From the text: as §2, §3

[3] = GnRHa therapy three months vs untreated

For CCNC(=O)[C@@H]1CCCN1C(=O)[C@H](CCCNC(=N)N)NC(=O)[C@H](CC(C)C)NC(=O)[C@@H](CC(C)C)NC(=O)[C@H](Cc1ccc(O)cc1)NC(=O)[C@H](CO)NC(=O)[C@H](Cc1c[nH]c2ccccc12)NC(=O)[C@H](Cc1c[nH]cn1)NC(=O)[C@@H]1CCC(=O)N1 [GnRHa, leuprolide acetate], the “FMOD mRNA expression in myometrium” value (myometrium [1]; GnRHa therapy three months (N=7) vs untreated) was “significantly reduced”, the “CCN3 mRNA expression in myometrium” value (myometrium [1]; [3]) was “significant reduction” and the “CCN4 mRNA expression in myometrium” value (myometrium [1]; [3]) was “significant reduction”. For the same compound, the “S100A4 mRNA expression in myometrium” value (myometrium [1]; [3]) was “significant reduction”, the “CITED2 expression in myometrium” value (myometrium [1]; GnRHa therapy vs untreated) was “increased” and the “GPRK5 expression in myometrium” value (myometrium [1]; GnRHa therapy vs untreated) was “inhibits”. For the same compound, the “IL-11 expression in myometrium” value (myometrium [1]; GnRHa therapy vs untreated) was “suppressed”, the “Nur77 expression in myometrium” value (myometrium [1]; GnRHa therapy vs untreated) was “significant elevation” and the “FMOD immunoreactive intensity in myometrium” value (myometrium [2]) was “reduction”. The “FMOD immunoreactive intensity in leiomyoma” value (leiomyoma) was “reduction”.
